Data from US12515027B2, “Subcutaneous biodegradable reservoir device” (Research Triangle Institute, priority 2018, dated 2026).
Several values for one entry are separate records, joined by “and”; a condition that tells them apart may be missing. Identical values can stand only once. Counter-ions that a name gives are not always drawn.

Columns and labels:
[1] = In vitro release from PCL reservoir implants in PBS pH 7.4 at 37 °C (UV-Vis); assay type: physicochemical; conditions: for release rate of TAF: first 30 days, normalized to 314 mm^2; for release rate of TAF from implant: summary b130; for TAF dosage (daily release rate): release over 35 days, FIG. 24; for Release Rates of TAF, Gamma-Irradiated: 18-24 kGy
Method: The implants were incubated in 1×PBS (pH 7.4) at 37° C. Drug quantity released in media was measured via UV-Vis three times per week during which the implants were transferred to fresh buffer to maintain sink conditions. Drug concentrations were determined by correlating UV absorbance values to a standard curve. Standard curves involved measuring peak absorbance values as a function of drug concentrations diluted by half from bulk solutions. Peak absorbance values were determined by scanning the dilute drug solutions from 230 to 700 nm at a step size of 1 nm and assessing the maximum UV absorbance value.
Testing was performed to evaluate release kinetics of varying formulations of active agent and excipient. In particular, the release mechanism and release profiles for TAF formulated with varying mass quantities of castor oil from extruded PCL tubes was evaluated. Heat extruded PCL devices were fabricated (2.5 mm×40 mm) using 80 kDa Sigma grade PCL. […] For the in vitro release studies, devices were incubated in 40 mL of phosphate buffered saline (PBS) at pH 7.4 in a shaking incubator at 37° C. The implants were transferred to fresh buffer three times per week to maintain sink conditions.
Testing was performed to evaluate the in vitro release profile for an exemplary segmented device. In-vitro conditions included a simulated physiological media of a salt solution at pH between 6.5 and 7.5 at a temperature of 37° C. The exemplary device was engineered to release two APIs simultaneously, both at zero-order release kinetics. The device was fabricated with a segmented architecture that contained LNG formulated with ethyl oleate at a 1:4 ratio and EFdA formulated with castor oil at a 1:1 ratio and housed in separate compartments within a single implant design. Different segment lengths, polymer membrane thicknesses and polymer properties were tested.
In vitro release characterization involved incubation of the implants in 40 mL 1× phosphate buffered saline (PBS) (pH 7.4) at 37° C. and placed on an orbital shaker. […] The release buffer was sampled three times per week during which the devices were transferred to 40 mL of fresh buffer to maintain sink conditions. TAF quantity released in each PBS buffer during the time interval was calculated and cumulative mass of drug release as a function of time was determined.

[2] = subdermal silicone implant with PVA-coated channels, beagle dogs; cited from earlier work
[3] = Solubility of active agents in excipients (saturated solutions, UPLC/UV)
Method: Over a 24-hour period, the solutions were mixed periodically and returned to the water bath. After approximately 72 hours, the solutions were removed from the water bath and appearance recorded for each of the saturated solutions. […] The supernatants were prepared for analysis by UPLC. Triplicate weighed aliquots were prepared from the collected supernatants and analyzed for assay using a UPLC/UV method. The analysis was performed using a Waters BEH C18 column (2.1 mm×50 mm, 1.7 μm) under gradient, reversed phase conditions with detection at 260 nm. The saturated solutions were quantitated by linear regression analysis against a 5-point calibration curve.
Testing using the same methodology was performed for EFdA, LNG, and ENG using various excipients.

[4] = subcutaneous implant, up to 90 days
Method: Testing was performed to evaluate the in vivo release profile of an exemplary device.

[5] = Chromatographic purity (stability) of formulation inside implant after in-vitro exposure (UPLC/UV); assay type: physicochemical; conditions: after 180 days in simulated physiological conditions

## CC(C)OC(=O)[C@H](C)N[P@](=O)(CO[C@H](C)Cn1cnc2c(N)ncnc21)Oc1ccccc1 [TAF, Tenofovir Alafenamide Fumarate]
[1]; 2:1 TAF:castor oil, 45 μm wall
  release rate of TAF: 0.91 ± 0.23 mg/day
[1]; 2:1 TAF:castor oil, 70 μm wall
  release rate of TAF: 0.61 ± 0.09 mg/day
[1]; 2:1 TAF:castor oil, 100 μm wall
  release rate of TAF: 0.29 ± 0.05 mg/day
[1]; 2:1 TAF:castor oil, 150 μm wall
  release rate of TAF: 0.19 ± 0.04 mg/day
[1]; 2:1 TAF:castor oil, 200 μm wall
  release rate of TAF: 0.15 ± 0.03 mg/day
[1]; 4:1 TAF-castor oil formulation
  initial release rate: 0.2 mg/day
[1]; 5:1 TAF-castor oil formulation
  initial release rate: 0.4 mg/day
[1]; 45 μm PCL wall
  release rate of TAF from implant: approximately 0.8 mg/day
[1]; 45 μm wall thickness, 2:1 TAF:castor oil
  TAF dosage (daily release rate): 0.78 ± 0.03 mg/day
[1]; 200 μm PCL wall
  release rate of TAF from implant: ~0.2 mg/day
[1]; 200 μm wall thickness, 2:1 TAF:castor oil
  TAF dosage (daily release rate): 0.13 ± 0.01 mg/day
[1]; PC-12, 70 μm wall
  Release Rates of TAF, Non-Irradiated: 0.37 ± 0.05 mg/day
  Release Rates of TAF, Gamma-Irradiated: 0.30 ± 0.03 mg/day
[1]; PC-12, 100 μm wall
  Release Rates of TAF, Non-Irradiated: 0.20 ± 0.03 mg/day
  Release Rates of TAF, Gamma-Irradiated: 0.20 ± 0.02 mg/day
[1]; Sigma-PCL, 70 μm wall
  Release Rates of TAF, Non-Irradiated: 0.62 ± 0.09 mg/day
  Release Rates of TAF, Gamma-Irradiated: 0.54 ± 0.06 mg/day
[1]; Sigma-PCL, 100 μm wall
  Release Rates of TAF, Non-Irradiated: 0.29 ± 0.05 mg/day
  Release Rates of TAF, Gamma-Irradiated: 0.32 ± 0.03 mg/day
[1]; TAF castor oil devices (1:1, 2:1, 3:1), PCL wall 70 μm, 2.5 mm x 40 mm
  Measured release rates for full sized device: 0.7 mg/day and 0.7 ± 0.08 mg/day
[1]; TAF castor oil devices, PCL wall 100 μm
  Measured release rates for full sized device: 0.38 ± 0.04 mg/day
[1]; TAF castor oil devices, PCL wall 200 μm
  Measured release rates for full sized device: 0.22 ± 0.01 mg/day
[1]; TAF castor oil, 70 μm, surface area 314 mm^2
  J, drug released from the membrane per unit area per unit time: 0.002 mg/day/mm^2
[1]; TAF:castor oil 1:1, 70 μm, 2.5 mm x 40 mm
  start of depletion: 76 days
[1]; TAF:castor oil 2:1, 70 μm, 2.5 mm x 40 mm
  start of depletion: 83 days
[1]; after 180 days in vitro, payload approximately 115 mg
  TAF remaining within the implant: approximately 68 mg
[1]; over the course of 180 days in vitro, 2:1 TAF:castor oil, 100 μm wall, 2.5 mm OD x 40 mm
  sustained release rate of TAF: 0.25 ± 0.03 mg/day
[1]; segmented implants of TAF with LNG or ENG
  duration of zero-order release from segmented implants: 50 days
[2]
  duration of drug delivery: 40 days
[3]; 37 °C, oil or lipid, thermodynamic from solid
  solubility at 72 h: 3900 µg/mL
[3]; sesame oil, castor oil, oleic acid, PEG 600, FIG. 8
  solubility of TAF within four different excipients: most soluble in oleic acid and PEG600
[4]
  reactivity at the site of the implant: minimal reactivity
[5]
  chromatographic purity of TAF remaining in implant: 89.2±0.8%
